These results are taken from patent US11851391B2, “Antifungal compounds and methods of forming the same” (University of Kentucky Research Foundation, priority 2018, dated 2023).

The term MIC denotes the smallest concentration in the dilution series that meets the test's criterion for growth inhibition.

SMILES strings stand for the structures. In brackets after ≈: the same amount, converted by molar mass.

Assay [1] relates to C. albicans ATCC MYA-2310(S) (strain E). The assay can be described thus: MIC determination, in vitro antifungal assay (CLSI M27-A3). Format: cell-based, Candida albicans. The settings on record: Candida albicans, 48 h, MIC-0, 48 h at 35° C., read-out: MIC. The procedure: (§1) The activity of N,N′-diaryl-bishydrazones 7-22 was tested against a panel of seven strains of C. albicans: ATCC 10231(R) (A), ATCC 64124(R) (B), ATCC MYA-2876(S) (C), ATCC 90819(R) (D), ATCC MYA-2310(S) (E), ATCC MYA-1237(R) (F), and ATCC MYA-1003(R) (G). The activity of these bishydrazones 7-22 was also explored against a panel of three non-albicans Candida strains: C. glabrata ATCC 2001 (H), C. krusei ATCC 6258 (I), and C. parapsilosis ATCC 22019 (J). Finally, the activity of these bishydrazones 7-22 was explored against three Aspergillus strains: A. flavus ATCC MYA-3631 (K), A. nidulans ATCC 38163 (L), and A. terreus ATCC MYA-3633 (M).
(§2) Candida albicans ATCC 10231 (A), C. albicans ATCC 64124 (B), and C. albicans ATCC MYA-2876 (C) were kindly provided by Dr. Jon Y. Takemoto (Utah State University, Logan, UT, USA). C. albicans ATCC 90819 (D), C. albicans ATCC MYA-2310 (E), C. albicans ATCC MYA-1237 (F), C. albicans ATCC MYA-1003 (G), Candida glabrata ATCC 2001 (H), Candida krusei ATCC 6258 (I), Candida parapsilosis ATCC 22019 (J), Aspergillus flavus ATCC MYA-3631 (K), and Aspergillus terreus ATCC MYA-3633 (M) were obtained from the American Type Culture Collection (ATCC; Manassas, VA, USA). Aspergillus nidulans ATCC 38163 (L) was received from Dr. Jon S. Thorson (University of Kentucky, Lexington, KY, USA). Filamentous fungi and yeasts were cultivated at 35° C. in RPMI 1640 medium (with 1-glutamine, without sodium biocarbonate, Sigma-Aldrich, St. Louis, MO) buffered to a pH of 7.0 with 0.165 M morpholinepropanesulfonic acid (MOPS) buffer (Sigma-Aldrich).
(§3) The MIC values of compounds 7a-24c against yeast cells (strains A-J) were determined in 96-well plates as described in the CLSI document M27-A3 with minor modifications. A single colony of freshly prepared yeast cells was used to inoculate 5 mL of yeast extract peptone dextrose (YPD) broth prior to incubation overnight with shaking at 200 rpm at 35° C. From the actively growing yeast culture, 100 μL were then transferred to 900 μL of sterile ddH2O and re-adjusted to achieve OD600 of 0.12 (˜1×10^6 CFU/mL). The cell suspension was further diluted to achieve 2-4×10^3 CFU/mL in RPMI 1640 medium. […] The final concentration of DMSO was ensured to be <1.25% in all experiments. The MIC values for compounds 7a-24c and CAS were defined as the minimum drug concentration that yielded complete inhibition (also known as MIC-0).

Assay [2] relates to C. albicans ATCC 64124(R) (strain B). The assay is described as above. Format: cell-based, Candida albicans. The settings on record: Candida albicans, ATCC64124, 48 h, strain B; MIC-0; 48 h at 35° C.; read-out: MIC. On the procedure:
as §1, §2, §3

Assay [3] deals with C. albicans ATCC MYA-1237(R) (strain F). Described as above. Format: cell-based, Candida albicans. The following applies: Candida albicans, 48 h, MIC-0, 48 h at 35° C., read-out: MIC. On the procedure: as §1, §2, §3
Assay [4] concerns C. albicans ATCC 90819(R) (strain D). The assay is described as above. The settings on record: Candida albicans, ATCC90819, 48 h, MIC-0, 48 h at 35° C., read-out: MIC. Format: cell-based, Candida albicans. On the procedure:
as §1, §2, §3

The test system of assay [5] is Candida albicans ATCC 10231(R) (strain A). The assay is described as above. Format: cell-based. The settings on record: Candida albicans, ATCC10231, 48 h, MIC-0 (no visible growth), 48 h at 35° C., read-out: MIC. On the procedure:
as §1, §2, §3

The subject of assay [6] is Candida parapsilosis ATCC 22019 (strain J). The description is as above. Format: cell-based. The following applies: Lodderomyces parapsilosis, ATCC22019, 48 h, strain J; MIC-0; 48 h at 35° C.; read-out: MIC. On the procedure:
as §1, §2, §3

In assay [7] the test system is C. albicans ATCC MYA-2876(S) (strain C). Described as above. It counts as cell-based, Candida albicans. The settings on record: Candida albicans, 48 h, MIC-0, 48 h at 35° C., read-out: MIC. On the procedure: as §1, §2
(§4) A single colony of freshly prepared yeast cells was used to inoculate 5 mL of yeast extract peptone dextrose (YPD) broth prior to incubation overnight with shaking at 200 rpm at 35° C. From the actively growing yeast culture, 100 μL were then transferred to 900 μL of sterile ddH2O and re-adjusted to achieve OD600 of 0.12 (˜1×10^6 CFU/mL). The cell suspension was further diluted to achieve 2-4×10^3 CFU/mL in RPMI 1640 medium. […] The final concentration of DMSO was ensured to be <1.25% in all experiments.

Assay [8] deals with C. albicans ATCC MYA-1003(R) (strain G). The description is as above. It counts as cell-based, Candida albicans. The settings on record: Candida albicans, 48 h, MIC-0, 48 h at 35° C., read-out: MIC. The procedure: as §1, §2, §4
For assay [9], the system named is Aspergillus flavus ATCC MYA-3631 (strain K). Description: MIC determination against filamentous fungi (CLSI M38-A2). The settings on record: Aspergillus flavus, 48 h, MIC-0, 48 h at 35° C., read-out: MIC. Format: cell-based. On the procedure: as §1, §2
(§5) Similarly, the MIC values of compounds 7a-24c, as well as that of the two control drugs against filamentous fungi (strains K-M) were determined as previously described in CLSI document M38-A2. Spores were harvested from sporulating cultures growing on potato dextrose agar (PDA) by filtration through sterile glass wool and enumerated by using a hemocytometer to obtain the desired inoculum size. […] Spore suspensions were added to the wells to afford a final concentration of 5×10^5 CFU/mL. The plates were incubated at 35° C. for 48 h. The MIC values of compounds 7a-24c and CAS against filamentous fungi were based on the complete inhibition of growth when compared to the growth control (MIC-0). […] Each test was performed in triplicate.

The test system of assay [10] is Aspergillus terreus ATCC MYA-3633 (strain M). Described as above. It counts as cell-based. The settings on record: Aspergillus terreus, 48 h, MIC-0, 48 h at 35° C., read-out: MIC. On the procedure: as §1, §2, §5
The subject of assay [11] is Aspergillus nidulans ATCC 38163 (strain L). The assay is described as above. Format: cell-based. The settings on record: Aspergillus nidulans, ATCC38163, 48 h, MIC-0, 48 h at 35° C., read-out: MIC. On the procedure: as §1, §2, §5
For assay [12], the system named is Candida glabrata ATCC 2001 (strain H). Description: MIC determination, in vitro antifungal assay (CLSI M27-A3). The following applies: Nakaseomyces glabratus, ATCC2001, 48 h, MIC-0, 48 h at 35° C., read-out: MIC. It counts as cell-based. On the procedure: as §1, §2, §4
The test system of assay [13] is Candida krusei ATCC 6258 (strain I). The assay is described as above. It counts as cell-based. The settings on record: Pichia kudriavzevii, ATCC6258, 48 h, MIC-0, 48 h at 35° C., read-out: MIC. On the procedure:
as §1, §2, §4

`CC[C@H](C)C[C@H](C)CCCCCCCCC(=O)N[C@H]1C[C@@H](O)[C@@H](NCCN)NC(=O)[C@@H]2[C@@H](O)CCN2C(=O)[C@H]([C@H](O)CCN)NC(=O)[C@H]([C@H](O)[C@@H](O)c2ccc(O)cc2)NC(=O)[C@@H]2C[C@@H](O)CN2C(=O)[C@H]([C@@H](C)O)NC1=O` [CAS, caspofungin, reference compound]: the MIC in assay [1] amounted to 0.12 µg/mL (≈ 0.11 µM); in assay [2], 0.24 µg/mL (≈ 0.22 µM); in [3], 0.24 µg/mL (≈ 0.22 µM); in assay [4] it was 0.12 µg/mL (≈ 0.11 µM); in assay [5], 0.975 µg/mL (≈ 0.892 µM); in assay [6], 1.95 µg/mL (≈ 1.78 µM). The MIC in assay [7] was 0.06 µg/mL (≈ 0.0549 µM); in assay [8] it was 0.48 µg/mL (≈ 0.439 µM); in [9], greater than 31.3 µg/mL; in assay [10], greater than 31.3 µg/mL; in assay [11] it was greater than 31.3 µg/mL; in [12], 0.06 µg/mL (≈ 0.0549 µM). Besides, the MIC in assay [13] worked out at 0.48 µg/mL (≈ 0.439 µM).
Regarding `Fc1ccc(F)c(N/N=C/c2ccc(-c3ccc(/C=N/Nc4cc(F)ccc4F)cc3)cc2)c1` [Compound 21b], the MIC in assay [1] was greater than 31.3 µg/mL; in assay [2] it was greater than 31.3 µg/mL; in assay [3], greater than 31.3 µg/mL; in [4], greater than 31.3 µg/mL; in [5] it was 31.3 µg/mL (≈ 67.7 µM); in [6], greater than 31.3 µg/mL. Further, the MIC in assay [7], in assay [8], in assay [9], in assay [10], in assay [11] and in assay [12] was greater than 31.3 µg/mL each time. Also, in assay [13], the MIC was greater than 31.3 µg/mL.
In the case of `N=C(N)N/N=C/c1ccc(-c2ccc(/C=N/NC(=N)N)cc2)cc1` [Compound 24b], the MIC in [1] is greater than 31.3 µg/mL; in assay [2] it was greater than 31.3 µg/mL; in assay [3], greater than 31.3 µg/mL; in [4] it was greater than 31.3 µg/mL; in [5], 31.3 µg/mL (≈ 97.1 µM); in [6] it was 3.9 µg/mL (≈ 12.1 µM). The MIC was greater than 31.3 µg/mL in assay [7]; 15.6 µg/mL (≈ 48.4 µM) in [8]; greater than 31.3 µg/mL in assay [9]; greater than 31.3 µg/mL in assay [10]; greater than 31.3 µg/mL in [11]; greater than 31.3 µg/mL in assay [12]. The MIC in assay [13] stood at 15.6 µg/mL (≈ 48.4 µM).
